Assay results reported in ChEMBL document CHEMBL3243933, “3-Aryl-as-triazines as potential antiinflammatory agents” (1977).
Active and inactive are the calls of the source. No cut-off for these calls is given here.

Assays:
Rattus norvegicus [1] = test: Antiinflammatory activity in rat adjuvant-induced arthritis model assessed as mean surface area of paw at 50 mg/kg/day administered via gavage relative to control; format: functional
Rattus norvegicus [2] = test: Antiinflammatory activity in rat assessed as inhibition of carrageenan-induced paw edema at 250 mg/kg administered via gavage relative to control; format: functional
Rattus norvegicus [3] = test: Antiinflammatory activity in rat adjuvant-induced arthritis model assessed as mean surface area of paw at 400 mg/kg/day administered via gavage relative to control; format: functional
Rattus norvegicus [4] = test: Antiinflammatory activity in rat assessed as inhibition of carrageenan-induced paw edema at 50 mg/kg administered via gavage relative to control; format: functional
Rattus norvegicus [5] = test: Antiinflammatory activity in rat adjuvant-induced arthritis model assessed as mean surface area of paw at 250 mg/kg administered via gavage relative to control; format: functional, organism-based; set-up: dose 250 mg/kg

**Q.** With `Clc1ccc(-c2nncnn2)cc1` as the compound, how does the Ratio (Rattus norvegicus [1]) read?
**A.** The Ratio was 0.54.

**Q.** What about the C/T (Rattus norvegicus [2]) of the same compound?
**A.** Its C/T is 3.07.

**Q.** `CC(=O)Oc1ccccc1C(=O)O` [ASPIRIN] was tested. Which Ratio (Rattus norvegicus [3]) did it give?
**A.** Its Ratio is 0.55.

**Q.** And the C/T (Rattus norvegicus [4])?
**A.** Its C/T is 2.8.

**Q.** `Fc1ccc(-c2nncnn2)cc1` was tested. Which Ratio (Rattus norvegicus [1]) did it give?
**A.** Its Ratio is 0.46.

**Q.** What about the C/T (Rattus norvegicus [2]) of the same compound?
**A.** The C/T was 2.8.

**Q.** `Fc1ccc(-c2nccnn2)cc1` was tested. Which C/T (Rattus norvegicus [2]) did it give?
**A.** The C/T was 2.67.

**Q.** And the Activity (Rattus norvegicus [5])?
**A.** Its Activity is “inactive”.

**Q.** `Clc1ccc(-c2nccnn2)cc1` was tested. Which C/T (Rattus norvegicus [2]) did it give?
**A.** The C/T was 2.25.

**Q.** What about the Activity (Rattus norvegicus [5]) of the same compound?
**A.** Its Activity is “inactive”.
